Results taken from US20200268765A1, “METHOD OF TREATING MEDULLOBLASTOMA WITH AN EZH2 INHIBITOR” (Epizyme, Inc., priority 2015, published 2020).
Entries after “also recorded” stand apart in the source; their conditions may differ.

Experiments:
[1] = test system: SCLC line NCI-H841; test: Microscopy of cell morphology; assay type: cell-based; conditions: 4.1E-02 uM or 3.3 uM; FIGS. 9A-9C
[2] = test system: G401 SNF mutant cell line; test: Soft agar growth of G401 versus RD cells; assay type: cell-based; conditions: after 7 days in soft agar, compared to wild type cells RD; FIGS. 3A-3D
Excerpt: FIGS. 3A-3D are a series of bar graphs showing that G401 SNF mutant cell line is responding to Compound D after 7 days in soft agar compared to wild type cells RD.

[3] = test system: SNF5 mutant cell lines A204, G401 and G402; test: Response of SNF5 mutant versus wild type cell lines to EZH2 compound; assay type: cell-based; conditions: compared to wild type cell lines RD and SJCRH30; FIGS. 2A-2E
[4] = test system: ATRX mutant SCLC lines NCI-H446, SW1271 and NCI-H841; test: Response of ATRX mutant SCLC lines; assay type: cell-based; conditions: FIGS. 8A-8C
Excerpt: FIGS. 8A-8C are three graphs establishing that ATRX mutant SCLC lines NCI-H446 (FIG. 8A), SW1271 (FIG. 8B) and NCI-H841 (FIG. 8C) are responding to Compound D.

[5] = test system: LNCAP prostate cancer cells; test: LNCAP cell growth inhibition in vitro; assay type: cell-based; conditions: FIG. 7A
[6] = test system: BT-16 ATRT cell line; test: Surviving fraction after 2Gy radiation, BT-16; assay type: cell-based; conditions: FIG. 25A
Excerpt: FIG. 25A is a pair of graphs showing a surviving fraction of untreated or DZNEP-treated ATRT cells (from a BT-16 ATRT cell line) exposed to 2Gy radiation. Inhibition of EZH2 radio-sensitizes ATRT.

[7] = test system: UPN737 ATRT cell line; test: Surviving fraction after 2Gy radiation, UPN737; assay type: cell-based; conditions: FIG. 25B
Excerpt: FIG. 25B is a pair of graphs showing a surviving fraction of untreated or DZNEP-treated ATRT cells (from a UPN737 ATRT cell line, “737”) exposed to 2Gy radiation. Inhibition of EZH2 radio-sensitizes ATRT.

[8] = test system: atypical teratoid rhabdoid tumors (ATRTs); test: ATRT cell self-renewal; assay type: cell-based
Excerpt: FIG. 24A is a series of photographs showing control or EZH2 inhibitor-treated (DNZep-treated) atypical teratoid rhabdoid tumors (ATRTs) at 1, 3, 5, and 7 days post-treatment.
FIG. 24D is a series of photographs showing control or EZH2 inhibitor-treated (DNZep-treated) atypical teratoid rhabdoid tumors (ATRTs) at 3, 5, 8 and 10 days post-treatment.

[9] = test system: medulloblastoma cells; test: Medulloblastoma cell growth (total cells per milliliter over time); assay type: cell-based; conditions: for medulloblastoma cell growth (total cells per milliliter): as a function of time (days), FIGS. 26A-26C
Excerpt: The total cells per milliliter of culture were counted each day for 10 days.

[10] = Oral bioavailability; conditions: in vivo
[11] = test system: G401 SNF5 mutant cell line; test: CellTiter-Glo Luminescent Cell Viability Assay after 7 days pretreatment; assay type: cell-based; conditions: pretreated for 7 days, replated on day 0; FIGS. 4A-4D
Experimental: FIGS. 4A-4D are four graphs showing that G401 SNF5 mutant cell line is sensitive to Compound A in vitro. Wild type cell line SJCRH30 (FIG. 4A) and RD (FIG. 4C) and SNF5 mutant cell line G401 (FIG. 4B) and A204 (FIG. 4D) were pretreated for 7 days with indicated concentrations of Compound A and replated on day 0. Cell viability was determined by CellTiter-Glo® Luminescent Cell Viability Assay.

[12] = test system: SMARCB1-deleted MRT cells; test: Cell cycle analysis (flow cytometry) and apoptosis (TUNEL assay); assay type: cell-based; conditions: 1 μM, up to 14 days, FIG. 13
Experimental: Cell cycle analysis (by flow cytometry) and determination of apoptosis (by TUNEL assay) in RD (FIG. 13A) or G401 cells (FIG. 13B) during incubation with either vehicle or 1 μM Compound A for up to 14 days. G1 arrest was observed as of day 7 and apoptosis was induced as of day 11. Data are represented as mean values±SEM (n=2). The DMSO control values shown are the average±SEM from each time point. Cells were split and re-plated on days 4, 7 and 11 at the original seeding density.

[13] = test system: primary medulloblastoma cells
Experimental: FIG. 28A is a schematic diagram depicting the process by which primary medulloblastoma cell growth is evaluated ex vivo.
A slice culture of medulloblastoma was freshly isolated from a subject.
A patient having medulloblastoma underwent surgery to remove a slice of tumor tissue for testing. The medulloblastoma slice was cultured ex vivo on tissue supporting inserts (FIG. 28A). […] Following the treatment period, the cells of the slice culture were treated with BrdU for 4 hours prior to disaggregation and sorting by flow cytometry.

[14] = test system: ATRT; test: ATRT survival in vivo; conditions: versus vehicle; FIG. 29A
[15] = test system: SMARCB1 regulated genes; test: Gene expression by qPCR; assay type: cell-based; conditions: G401 and RD cells, 1 μM, 2, 4 and 7 days; FIGS. 14A-14L
Experimental: FIG. 14A: Basal expression of SMARCB1 regulated genes in G401 SMARCB1-deleted cells, relative to RD control cells (measured by qPCR, n=2). FIGS. 14B-14K: G401 and RD cells were incubated with either DMSO or 1 μM Compound A for 2, 4 and 7 days. Gene expression was determined by qPCR (n=2) and is expressed relative to the DMSO control of each time point. FIGS. 14B-14K correspond to genes GLI1, PTCh1, DOCK4, CD133, PTPRK, BIN1, CDKN1A, CDKN2A, EZH2, and MYC, respectively. FIG. 14L: G402 cells were incubated with either DMSO (left panel) or 1 μM Compound A (right panel) for 14 days. Cells were split and re-plated to the original seeding density on day 7.

[16] = test system: cellular H3K27Me3 levels in G401 and RD cells; test: Cellular histone methylation (immunoblot of acid-extracted histones); assay type: cell-based
Experimental: FIGS. 10A-10F are a series of graphs showing effects of Compound A on cellular global histone methylation and cell viability.
FIG. 12A: Cell lysates were analyzed by immunoblot with antibodies specific to SMARCB1, EZH2 and Actin (loading control). […] Cells were incubated with Compound A for 4 days, and acid-extracted histones were analyzed by immunoblot.

[17] = test system: G401 xenografts; test: G401 xenograft (malignant rhabdoid tumor model); assay type: in vivo, SCID mice
Experimental: Data represent the mean values±SEM (n=8). Compound administration was stopped on day 28. FIG. 5C: EZH2 target inhibition in G401 xenograft tumor tissue collected from a parallel cohort of mice on day 21. […] Horizontal lines represent group mean values. BLLQ=below lower limit of quantification. FIGS. 5D and 5E show Immunohistochemical staining of tumor histone methylation of tumor samples from the vehicle treated (FIG. 5D) and Compound A treated (FIG. 5E) (at 125 mg/kg) mice.
Data are presented as mean values±SEM (n=16 until day 21, n=8 from day 22 to 60). […] FIG. 15C: Tumor weights of 8 mice euthanized on day 21. ****p<0.0001, Fisher's exact test. FIG. 15D: Plasma was collected 5 min before and 3 h after dosing of Compound A on day 21, and compound levels were measured by LC-MS/MS. Animals were euthanized, and tumors were collected 3 h after dosing on day 21. Tumor homogenates were generated and subjected to LC-MS/MS analysis to determine Compound A concentrations. Note that tumor compound levels could not be determined from all animals especially in the higher dose groups because the xenografts were too small on day 21. Dots represent values for the individual animals; horizontal lines represent group mean values.
FIGS. 16A-16F are a series of graphs showing that Compound A eradicates SMARCB1-deleted MRT xenografts in SCID mice. […]

[18] = 500 nM or 2 μM, 4 days, compared to untreated control

## CCN(c1cc(-c2ccc(CN3CCOCC3)cc2)cc(C(=O)NCc2c(C)cc(C)[nH]c2=O)c1C)[C@H]1CC[C@H](N(C)C)CC1 [Compound D]
[1]
  cell morphology: changes morphology
[2]
  response in soft agar: responding
[3]
  response of cell lines to EZH2 compound: selectively respond
[4]
  response of cell lines: responding
[5]
  cell growth inhibition: dose-dependent cell growth inhibition

## Nc1nccc2c1ncn2C1C=C(CO)C(O)C1O (stereo not shown) [DNZep]
[6]
  radio-sensitization (surviving fraction): radio-sensitizes
[7]
  radio-sensitization (surviving fraction): radio-sensitizes
[8]; 1, 3, 5, and 7 days post-treatment, FIG. 24A
  ATRT cell self-renewal: suppresses ATRT cell self-renewal
[8]; 3, 5, 8 and 10 days post-treatment, FIG. 24D
  ATRT cell self-renewal: suppresses ATRT cell self-renewal

## CC[C@H](C)n1cc(C)c2c(C(=O)NCc3c(C)cc(C)[nH]c3=O)cc(-c3ccc(N4CCNCC4)nc3)cc21 [GSK-126, reference compound]
[9]
  medulloblastoma cell growth (total cells per milliliter): decrease medulloblastoma cell growth

## CCCc1cc(C)[nH]c(=O)c1CNC(=O)c1cc(-c2ccc(N3CCN(C(C)C)CC3)nc2)cc2c1cnn2C(C)C [UNC 1999, reference compound]
[9]
  medulloblastoma cell growth (total cells per milliliter): decrease medulloblastoma cell growth

## CCN(c1cc(-c2ccc(CN3CCOCC3)cc2)cc(C(=O)NCc2c(C)cc(C)[nH]c2=O)c1C)C1CCOCC1 [tazemetostat]
[10]
  oral bioavailability: orally bioavailable
[11]
  cell viability (sensitivity in vitro): sensitive
[12]; TUNEL
  day as of which apoptosis was induced: 11 days
[12]
  day as of which G1 arrest was observed: 7 days
[13]; [18]
  proportion of cells in the G0/G1 stage: increased proportion
  proportion of cells in the G2/M stage: decreased proportion
[13]; slice culture treated 4 days, FIG. 28B
  primary medulloblastoma cell growth ex vivo (cell cycle stages): decreases primary medulloblastoma cell growth ex vivo
[13]; slice culture treated 4 days, FIG. 28C
  primary medulloblastoma cell growth ex vivo (BrdU): decreases primary medulloblastoma cell growth ex vivo
[9]; 0.5 μM, 2 μM and 6 μM, counted each day for 10 days, FIG. 26C
  medulloblastoma cell growth versus negative control (DMSO): significant decrease
[9]; GSK-126, UNC 1999 and tazemetostat, FIG. 26D
  effect on medulloblastoma cell growth compared with the other small molecule inhibitors tested: superior ability to decrease medulloblastoma cell growth; also recorded: greatest effect
[9]
  medulloblastoma cell growth (total cells per milliliter): decrease medulloblastoma cell growth
[14]
  percent survival / ATRT in vivo: decreases ATRT in vivo
[15]
  expression of SMARCB1 regulated genes: induces changes in expression
[16]; 4 days incubation, immunoblot, FIG. 12B
  inhibition of cellular H3K27 methylation (specificity): Selective inhibition of cellular H3K27 methylation
[16]; FIG. 10B
  inhibition of cellular H3K27Me3 levels: Concentration-dependent inhibition
[17]; administration stopped on day 28, FIGS. 5A-5B
  tumor regression: durable regressions
[17]; twice daily (BID) for 21 days, FIG. 15B
  tumor regression: Tumor regressions induced
